Measured values: patent publication US20110178119A1, “Bridged N-Bicyclic Sulfonamido Inhibitors of Gamma Secretase” (ELAN PHARMACEUTICALS, INC., priority 2005, published 2011)

Biological target: T1, gamma-secretase (Homo sapiens, UniProt P49768)
T1 construct: a partially purified extract of IMR-32 cell membranes as the gamma-secretase enzyme preparation; endogenous in cells; host or cells: IMR-32 cell membranes, partially purified extract
Test: Gamma-secretase APP enzyme assay (cleavage of MBP-C125swe substrate, sandwich ELISA)
Assay type: biochemical
Details: partially purified extract of IMR-32 cell membranes as enzyme, 2 h at 37° C, ELISA detection of cleavage product, read-out: γAPP
Excerpt: The gamma-secretase APP enzyme assay was designed to measure the specific proteolytic cleavage of an APP substrate (MBP-C125 Swe fusion protein) at the […] site. The assay used a partially purified extract of IMR-32 cell membranes as the gamma-secretase enzyme preparation and a recombinant fusion protein containing the C-terminal 125 amino acids of the Swedish variant of the APP (MBP-C125swe) as the substrate. This assay involved two steps beginning with the enzymatic reaction generating a cleavage product that was captured with an immobilized antibody specific for the neo-epitope […] site. The captured cleavage product was then detected in a sandwich ELISA assay with a biotinylated reporter antibody that is specific to Aβ (17-28). Streptavidin-linked alkaline phosphatase was then added that would generate a fluorescent signal proportional to the amount of cleavage product. This assay was used to discover small molecule inhibitors of gamma-secretase. Briefly, a 149 mg/ml solution of […] detergent was made with water at 42° C. and then rotated for 30 minutes at the same temperature. […] Louis, Mo.) to a concentration of 8 mg/ml. This solution containing BigCHAPS and lipid at 8 mg/ml is then diluted to 0.53 mg/ml lipid with a pre-warmed solution of Hepes and sodium chloride. This final solution containing Hepes buffer, sodium chloride, BigCHAPS detergent and lipid is used to create working solutions of both gamma-secretase (25 Units) and the MBP-C125 substrate (0.05 mg/ml). Gamma-secretase was then added to a 96-well micro-titre plate and then incubated with various concentrations of inhibitor for 30 minutes at 37° C. MBP-C125 substrate was then added to initiate the reaction that would run for two hours at 37° C. The reaction was quenched with the addition of SDS to a final concentration of 0.1% and then 100 μl of the reaction mixture was transferred to a capture ELISA plate and incubated overnight at 4° C. Detection of the cleavage product was performed using a standard sandwich ELISA assay and quantified using a six point standard curve.

| Compound | IC50 [nM] |
| --- | --- |
| O=S(=O)(c1ccc(C(F)(F)F)cc1)N1C2CCCC1CCC2 [9-(4-(trifluoromethyl)phenylsulfonyl)-9-azabicyclo[3.3.1]nonane] | 2000 to 5000 |
| O=S(=O)(c1ccc(Br)cc1)N1C2CCCC1CC2 [8-(4-bromophenylsulfonyl)-8-azabicyclo[3.2.1]octane] | 2000 to 5000 |
| C=C1CC2CCCC(C1)N2S(=O)(=O)c1ccc(Cl)cc1 [9-(4-chlorophenylsulfonyl)-3-methylene-9-azabicyclo[3.3.1]nonane] | < 1000 |
| O=S(=O)(c1ccc(Cl)cc1)N1C2CCCC1CC(=NO)C2 [9-(4-chlorophenylsulfonyl)-9-azabicyclo[3.3.1]nonan-3-one oxime] | 2000 to 5000 |
| O=S(=O)(c1ccc(Cl)cc1)N1C2CCCC1CSC2 [9-(4-chlorophenylsulfonyl)-3-thia-9-azabicyclo[3.3.1]nonane] | < 1000 |
| O=S(=O)(c1ccc(Cl)cc1)N1C2CCCC1CCC2 [9-(4-chlorophenylsulfonyl)-9-azabicyclo[3.3.1]nonane] | 1000 to 2500 |
| O=C1CC2CCCC(C1)N2S(=O)(=O)c1ccc(Cl)cc1 [9-(4-chlorophenylsulfonyl)-9-azabicyclo[3.3.1]nonan-3-one] | < 1000 |
| O=S(=O)(c1ccc(Br)c(F)c1)N1C2CCCC1CCC2 [9-(4-bromo-3-fluorophenylsulfonyl)-9-azabicyclo[3.3.1]nonane] | 2000 to 5000 |
| O=C1NC(=O)C2CCCC1N2S(=O)(=O)c1ccc(Cl)cc1 [9-[(4-chlorophenyl)sulfonyl]-3,9-diazabicyclo[3.3.1]nonane-2,4-dione] | < 1000 |
| CS(=O)(=O)OC1CC2CCCC(C1)N2S(=O)(=O)c1ccc(Cl)cc1 (stereo not shown) [Methanesulfonic acid 9-(4-chloro-benzenesulfonyl)-9-aza-bicyclo[3.3.1]non-3-yl ester] | 1000 to 2500 |
| O=S(=O)(c1ccc(Cl)cc1)N1C2CCCC1COC2 [9-(4-chlorophenylsulfonyl)-3-oxa-9-azabicyclo[3.3.1]nonane] | 2000 to 5000 |
| O=S(=O)(c1ccc(Br)cc1)N1C2CCCC1CCC2 [9-(4-bromophenylsulfonyl)-9-azabicyclo[3.3.1]nonane] | 1000 to 2500 |
| O=S(=O)(c1ccc(Br)s1)N1C2CCCC1CCC2 [9-(5-bromothiophen-2-ylsulfonyl)-9-azabicyclo[3.3.1]nonane] | 2000 to 5000 |
| O=S(=O)(c1ccc(Cl)s1)N1C2CCCC1CCC2 [9-(5-chlorothiophen-2-ylsulfonyl)-9-azabicyclo[3.3.1]nonane] | 2000 to 5000 |
| O=S(=O)(c1ccc(Cl)cc1)N1C2CCCC1CN(c1ccccc1)C2 [9-(4-chlorophenylsulfonyl)-3-phenyl-3,9-diazabicyclo[3.3.1]nonane] | 1000 to 2500 |
| O=C1NCC2CCCC1N2S(=O)(=O)c1ccc(Cl)cc1 (stereo not shown) [9-(4-chlorophenylsulfonyl)-3,9-diazabicyclo[3.3.1]nonan-2-one] | 2000 to 5000 |
| O=S(=O)(c1ccc(Cl)cc1)N1C2CCCC1CC(O)C2 (stereo not shown) [9-(4-chlorophenylsulfonyl)-9-azabicyclo[3.3.1]nonan-3-ol] | 2000 to 5000 |
| CN(C(=O)OC(C)(C)C)C1CC2CCCC(C1)N2S(=O)(=O)c1ccc(Cl)cc1 (stereo not shown) [[9-(4-Chloro-benzenesulfonyl)-9-aza-bicyclo[3.3.1]non-3-yl]-methyl-carbamic acid tert-butyl ester] | < 1000 |
| O=S(=O)(c1ccc(Cl)cc1)N1C2CCCC1CC2 [8-(4-chlorophenylsulfonyl)-8-azabicyclo[3.2.1]octane] | 2000 to 5000 |
